*1 amine or outer side, *2 acyl side, *3 side chain or, on linkers, in order; H or OH if unused. Where a SMILES comes first, the peptide text is derived from it. Bridges are numbered along the chain shown (N, C = ends). [ ]: non-standard residue; d: D form. The star is where a group is joined. Phe(3-CONHMe,4-OMe) = CNC(=O)c1cc(C[C@H](N)C(=O)O)ccc1OC; NMePhe(3-Cl) = CN[C@@H](Cc1cccc(Cl)c1)C(=O)O; NMehPhe = CN[C@@H](CCc1ccccc1)C(=O)O; NMeF = CN[C@@H](Cc1ccccc1)C(=O)O; NMeGABA = CN(CCCC(=O)[*:2])[*:1]; NMeI = CC[C@H](C)[C@H](NC)C(=O)O; Butyl(3-Me,3-OH) = CC(C)(O)CC*; NMeL = CN[C@@H](CC(C)C)C(=O)O; NMeV = CN[C@H](C(=O)O)C(C)C; NMeAbu = CC[C@H](NC)C(=O)O; NMeA = CN[C@@H](C)C(=O)O; Piperidide = C1CCN(*)CC1; NBuGly = CCCCNCC(=O)O; Isopentyl = CC(C)CC*; NPrGly = CCCNCC(=O)O; Sar = CNCC(=O)O; tBu = CC(C)(C)*
Assay: in vitro
Conditions: human, Caco-2, Caco-2 (cm/sec)

Row | Compound | Papp
1 | CCCCN1CC(=O)N(C)[C@@H](CC(C)C)C(=O)N[C@@H](COC(C)(C)C)C(=O)N(C)[C@@H](Cc2ccccc2)C(=O)N(C)[C@@H](CC(C)C)C(=O)N[C@H](C(=O)N2CCCCC2)CC(=O)N[C@H](C(C)C)C(=O)N(C)[C@@H](C(C)C)C(=O)N[C@@H](Cc2ccc(OC)c(C(=O)NC)c2)C(=O)N(C)[C@@H](CC(C)C)C(=O)N[C@@H]([C@@H](C)O)C1=O [AP35] ([dV][NMeV][Phe(3-CONHMe,4-OMe)][NMeL]T[NBuGly][NMeL]S(tBu)[NMeF][NMeL]D-Piperidide; lactam N-11) | 2 ×10⁻⁶ cm/s
2 | CCCCN1CC(=O)N(C)[C@@H](CC(C)C)C(=O)N[C@@H](Cc2ccc(OC)c(C(=O)NC)c2)C(=O)N(C)[C@@H](CC(C)C)C(=O)N(C)[C@@H](CC(C)C)C(=O)N[C@H](C(=O)N2CCCCC2)CC(=O)N[C@H](CC(C)C)C(=O)N(C)[C@@H](Cc2ccccc2)C(=O)N[C@@H](C(C)C)C(=O)N(C)[C@@H](CC(C)C)C(=O)N[C@@H]([C@@H](C)O)C1=O [AP36] ([dL][NMeF]V[NMeL]T[NBuGly][NMeL][Phe(3-CONHMe,4-OMe)][NMeL][NMeL]D-Piperidide; lactam N-11) | 0.26 ×10⁻⁶ cm/s
3 | CCCCN1CC(=O)N(C)[C@@H](CC(C)C)C(=O)N[C@@H](COC(C)(C)C)C(=O)N(C)[C@@H]([C@@H](C)CC)C(=O)N(C)[C@@H](CC(C)C)C(=O)N[C@H](C(=O)N2CCCCC2)CC(=O)N[C@H](C)C(=O)N(C)[C@@H](Cc2ccccc2)C(=O)N[C@@H](Cc2ccc(OC)c(C(=O)NC)c2)C(=O)N(C)[C@@H](CC(C)C)C(=O)N[C@@H]([C@@H](C)O)C1=O [AP37] ([dA][NMeF][Phe(3-CONHMe,4-OMe)][NMeL]T[NBuGly][NMeL]S(tBu)[NMeI][NMeL]D-Piperidide; lactam N-11) | 0.4 ×10⁻⁶ cm/s
4 | CC[C@H](C)[C@@H]1NC(=O)[C@H](CC(C)C)N(C)C(=O)CCCN(C)C(=O)C[C@@H](C(=O)N2CCCCC2)NC(=O)[C@H](CC(C)C)N(C)C(=O)[C@H](CC(C)C)N(C)C(=O)[C@H]([C@@H](C)O)NC(=O)[C@H](CC(C)C)N(C)C(=O)[C@H](Cc2ccc(OC)c(C(=O)NC)c2)NC(=O)[C@H](CC(C)C)N(C)C(=O)[C@H](Cc2ccccc2)N(C)C1=O [AP38] ([NMeGABA][NMeL]I[NMeF][NMeL][Phe(3-CONHMe,4-OMe)][NMeL]T[NMeL][NMeL]D-Piperidide; lactam N-11) | 0.2 ×10⁻⁶ cm/s
5 | CC[C@H](C)[C@H]1C(=O)N[C@@H]([C@@H](C)O)C(=O)N(C)CC(=O)N(C)[C@@H](CC)C(=O)N[C@H](C(=O)N2CCCCC2)CC(=O)N(C)[C@@H](CC(C)C)C(=O)N[C@@H](Cc2ccc(OC)c(C(=O)NC)c2)C(=O)N(C)[C@@H](CC(C)C)C(=O)N(C)[C@@H](Cc2ccccc2)C(=O)N[C@@H](CC(C)C)C(=O)N(C)[C@@H](CC(C)C)C(=O)N1C [AP39] ([NMeL][Phe(3-CONHMe,4-OMe)][NMeL][NMeF]L[NMeL][NMeI]T[Sar][NMeAbu]D-Piperidide; lactam N-11) | 0.01 ×10⁻⁶ cm/s
6 | CNC(=O)c1cc(C[C@@H]2NC(=O)[C@H](CC(C)C)N(C)C(=O)[C@H](CC(C)C)N(C)C(=O)[C@H](CC(C)C)NC(=O)[C@H](CC(C)C)N(C)C(=O)C[C@@H](C(=O)N3CCCCC3)NC(=O)[C@H](CC(C)C)N(C)C(=O)CN(C)C(=O)[C@H]([C@@H](C)O)NC(=O)[C@H](C(C)C)N(C)C(=O)[C@H](CC(C)C)N(C)C2=O)ccc1OC [AP40] ([NMeL]L[NMeL][NMeL][Phe(3-CONHMe,4-OMe)][NMeL][NMeV]T[Sar][NMeL]D-Piperidide; lactam N-11) | 0.63 ×10⁻⁶ cm/s
7 | CCCCN1CC(=O)N(C)[C@@H](CC(C)C)C(=O)N(C)[C@@H](CC(C)C)C(=O)N[C@@H](COC(C)(C)C)C(=O)N(C)[C@@H](CC(C)C)C(=O)N[C@H](C(=O)N2CCCCC2)CC(=O)N(C)CC(=O)N(C)[C@@H](Cc2cccc(Cl)c2)C(=O)N[C@@H](Cc2ccc(OC)c(C(=O)NC)c2)C(=O)N(C)[C@@H](CC(C)C)C(=O)N[C@@H]([C@@H](C)O)C1=O [AP41] ([Sar][NMePhe(3-Cl)][Phe(3-CONHMe,4-OMe)][NMeL]T[NBuGly][NMeL][NMeL]S(tBu)[NMeL]D-Piperidide; lactam N-11) | 0.45 ×10⁻⁶ cm/s
8 | CC[C@H](C)[C@@H]1NC(=O)[C@H](CC(C)C)N(C)C(=O)CN(C)C(=O)C[C@@H](C(=O)N2CCCCC2)NC(=O)[C@H](CC(C)C)N(C)C(=O)[C@H](Cc2ccc(OC)c(C(=O)NC)c2)NC(=O)[C@H](CC(C)C)N(C)C(=O)[C@H](Cc2cccc(Cl)c2)N(C)C(=O)CN(C)C(=O)[C@H]([C@@H](C)O)NC(=O)[C@H](CC(C)C)N(C)C1=O [AP42] ([Sar][NMeL]I[NMeL]T[Sar][NMePhe(3-Cl)][NMeL][Phe(3-CONHMe,4-OMe)][NMeL]D-Piperidide; lactam N-11) | 0.25 ×10⁻⁶ cm/s
9 | CC(C)CCOC[C@@H]1NC(=O)[C@H](CC(C)C)N(C)C(=O)CN(C)C(=O)[C@H]([C@@H](C)O)NC(=O)[C@H](CC(C)C)N(C)C(=O)[C@H](COCCC(C)(C)O)NC(=O)[C@H](Cc2ccccc2)N(C)C(=O)[C@@H](C(C)C)NC(=O)C[C@@H](C(=O)N2CCCCC2)NC(=O)[C@H](CC(C)C)N(C)C(=O)[C@H](Cc2ccccc2)N(C)C1=O [AP51] ([dV][NMeF]S(Butyl(3-Me,3-OH))[NMeL]T[Sar][NMeL]S(Isopentyl)[NMeF][NMeL]D-Piperidide; lactam N-11) | 1.4 ×10⁻⁶ cm/s
10 | CC(C)C[C@@H]1NC(=O)[C@H](Cc2ccccc2)N(C)C(=O)[C@@H](C(C)C)NC(=O)C[C@@H](C(=O)N2CCCCC2)NC(=O)[C@H](CC(C)C)N(C)C(=O)[C@H](Cc2cccc(Cl)c2)N(C)C(=O)[C@H](COCCC(C)(C)O)NC(=O)[C@H](CC(C)C)N(C)C(=O)CN(C)C(=O)[C@H]([C@@H](C)O)NC(=O)[C@H](C(C)C)N(C)C1=O [AP52] ([dV][NMeF]L[NMeV]T[Sar][NMeL]S(Butyl(3-Me,3-OH))[NMePhe(3-Cl)][NMeL]D-Piperidide; lactam N-11) | 1.7 ×10⁻⁶ cm/s
11 | CC(C)CCOC[C@@H]1NC(=O)[C@H](Cc2ccccc2)N(C)C(=O)[C@H](Cc2ccccc2)N(C)C(=O)[C@H](COCCC(C)(C)O)NC(=O)[C@H](CC(C)C)N(C)C(=O)CCCN(C)C(=O)C[C@@H](C(=O)N2CCCCC2)NC(=O)[C@H](CC(C)C)N(C)C(=O)[C@H](CC(C)C)N(C)C(=O)[C@H]([C@@H](C)O)NC(=O)[C@H](C(C)C)N(C)C1=O [AP53] ([NMeGABA][NMeL]S(Butyl(3-Me,3-OH))[NMeF][NMeF]S(Isopentyl)[NMeV]T[NMeL][NMeL]D-Piperidide; lactam N-11) | 0.74 ×10⁻⁶ cm/s
12 | CC[C@H](C)[C@@H]1NC(=O)[C@H](C(C)C)N(C)C(=O)CCCN(C)C(=O)C[C@@H](C(=O)N2CCCCC2)NC(=O)[C@H](CC(C)C)N(C)C(=O)[C@H](CC(C)C)N(C)C(=O)[C@H]([C@@H](C)O)NC(=O)[C@H](CC(C)C)N(C)C(=O)[C@H](COCCC(C)(C)O)NC(=O)[C@H](Cc2cccc(Cl)c2)N(C)C(=O)[C@H](Cc2ccccc2)N(C)C1=O [AP54] ([NMeGABA][NMeV]I[NMeF][NMePhe(3-Cl)]S(Butyl(3-Me,3-OH))[NMeL]T[NMeL][NMeL]D-Piperidide; lactam N-11) | 1.4 ×10⁻⁶ cm/s
13 | CC(C)C[C@@H]1NC(=O)[C@H](Cc2ccccc2)N(C)C(=O)[C@H](CC(C)C)N(C)C(=O)[C@H](COCCC(C)(C)O)NC(=O)[C@H](C)N(C)C(=O)C[C@@H](C(=O)N2CCCCC2)NC(=O)[C@H](CC(C)C)N(C)C(=O)CN(C)C(=O)[C@H]([C@@H](C)O)NC(=O)[C@H](CC(C)C)N(C)C(=O)[C@H](CCc2ccccc2)N(C)C1=O [AP55] ([NMeA]S(Butyl(3-Me,3-OH))[NMeL][NMeF]L[NMehPhe][NMeL]T[Sar][NMeL]D-Piperidide; lactam N-11) | 1.3 ×10⁻⁶ cm/s
14 | CC(C)C[C@@H]1NC(=O)[C@H](C)N(C)C(=O)C[C@@H](C(=O)N2CCCCC2)NC(=O)[C@H](CC(C)C)N(C)C(=O)CN(C)C(=O)[C@H]([C@@H](C)O)NC(=O)[C@H](CC(C)C)N(C)C(=O)[C@H](CCc2ccccc2)N(C)C(=O)[C@H](COCCC(C)(C)O)NC(=O)[C@H](Cc2ccccc2)N(C)C(=O)[C@H](CC(C)C)N(C)C1=O [AP56] ([NMeA]L[NMeL][NMeF]S(Butyl(3-Me,3-OH))[NMehPhe][NMeL]T[Sar][NMeL]D-Piperidide; lactam N-11) | 1.3 ×10⁻⁶ cm/s
15 | CC(C)C[C@H]1C(=O)N[C@@H]([C@@H](C)O)C(=O)N(C)CC(=O)N(C)[C@@H](Cc2cccc(Cl)c2)C(=O)N(C)[C@@H](CC(C)C)C(=O)N[C@@H](COC(C)(C)C)C(=O)N(C)[C@@H](CC(C)C)C(=O)N[C@H](C(=O)N2CCCCC2)CC(=O)N(C)CC(=O)N(C)[C@@H](CCc2ccccc2)C(=O)N[C@@H](COCCC(C)(C)O)C(=O)N1C [AP57] ([Sar][NMehPhe]S(Butyl(3-Me,3-OH))[NMeL]T[Sar][NMePhe(3-Cl)][NMeL]S(tBu)[NMeL]D-Piperidide; lactam N-11) | 0.83 ×10⁻⁶ cm/s
16 | CC[C@H](C)[C@@H]1NC(=O)[C@H](Cc2ccccc2)N(C)C(=O)CN(C)C(=O)C[C@@H](C(=O)N2CCCCC2)NC(=O)[C@H](CC(C)C)N(C)C(=O)[C@H](COCCC(C)(C)O)NC(=O)[C@H](CC(C)C)N(C)C(=O)[C@H](CCc2ccccc2)N(C)C(=O)CN(C)C(=O)[C@H]([C@@H](C)O)NC(=O)[C@H](CC(C)C)N(C)C1=O [AP58] ([Sar][NMeF]I[NMeL]T[Sar][NMehPhe][NMeL]S(Butyl(3-Me,3-OH))[NMeL]D-Piperidide; lactam N-11) | 0.49 ×10⁻⁶ cm/s
17 | CCCN1CC(=O)N(C)[C@@H](Cc2ccccc2)C(=O)N[C@@H]([C@@H](C)CC)C(=O)N(C)[C@@H](CC(C)C)C(=O)N[C@@H]([C@@H](C)O)C(=O)N(C)CC(=O)N(C)[C@@H](Cc2ccccc2)C(=O)N(C)[C@@H](CC(C)C)C(=O)N[C@@H](COCCC(C)(C)O)C(=O)N(C)[C@@H](CC(C)C)C(=O)N[C@H](C(=O)N2CCCCC2)CC1=O [AP59] ([NPrGly][NMeF]I[NMeL]T[Sar][NMeF][NMeL]S(Butyl(3-Me,3-OH))[NMeL]D-Piperidide; lactam N-11) | 0.78 ×10⁻⁶ cm/s
18 | CC(C)C[C@@H]1NC(=O)[C@H](CCc2ccccc2)N(C)C(=O)[C@@H](C(C)C)NC(=O)C[C@@H](C(=O)N2CCCCC2)NC(=O)[C@H](CC(C)C)N(C)C(=O)[C@H](Cc2ccccc2)N(C)C(=O)[C@H](COCCC(C)(C)O)NC(=O)[C@H](CC(C)C)N(C)C(=O)CN(C)C(=O)[C@H]([C@@H](C)O)NC(=O)[C@H](CC(C)C)N(C)C1=O [AP60] ([dV][NMehPhe]L[NMeL]T[Sar][NMeL]S(Butyl(3-Me,3-OH))[NMeF][NMeL]D-Piperidide; lactam N-11) | 1 ×10⁻⁶ cm/s
